From article PMC6416395, “B1.12: a novel peptide interacting with the extracellular loop of the EBV oncoprotein LMP1” (Scientific Reports, 2019) come the findings set out here.

The labels stand for the following.
B2: B1 peptide (first extracellular loop of LMP1) (peptide)
peptide: CMSDWTGG
notes: first extracellular loop of latent membrane protein 1 (LMP1), Epstein-Barr virus; Made on Rink amide resin, so the C-terminus may be an amide (surmised); also called target B1; B1 loop of LMP1; source: synthetic peptide (solid-phase Fmoc chemistry, RP-HPLC purified)
B3: B1.12 peptide (peptide)
peptide: ACPLDLRSPCG
notes: peptide selected by phage display from the Ph.D.-C7C library against the B1 loop peptide of LMP1; Made on Rink amide MBHA resin, so the C-terminus may be an amide (surmised); also called selected peptide B1.12; source: synthetic peptide (solid-phase Fmoc chemistry, RP-HPLC purified)

Test [1] relates to LMP1 negative cells (HeLa/Gpt). Kind of test: Cellular uptake by flow cytometry, LMP1 negative cells. Type of test: cell-based. To be noted: FITC-labeled peptide 100 μM, 24 hours. How it is done:
(§1) The cellular uptake of the FITC labeled B1.12 peptide/unrelated peptide was analyzed by flow cytometry. C666.1, HeLa/LMP1, and HeLa/Gpt cells, were seeded at a density of 4 × 10^5 cells/mL at 37 °C for 24 hours, and then incubated with 100 μM of both FITC-labeled peptides for 24 hours. Cells were washed three times, trypsinized, centrifuged at 1700 rpm for 5 minutes and then resuspended in 0.35 mL of PBS. The fluorescence associated to the cells was measured using LSR Fortessa X-20 (Becton Dickinson) for HeLa/LMP1 or Attune NxT Flow Cytometer (Thermofisher) cytometer for C666.1 and HeLa/Gpt cells.
Background: In flow cytometry, cells or beads pass a laser one at a time.

In the next test the test system is C666.1 cells. In words: Fluorescence microscopy, C666.1. Type of test: cell-based. To be noted: 10 µM FITC-labeled peptide, (1 hour elsewhere in the source), fixed C666.1 cells. How it is done: To further investigate the fixation of the peptide on C666.1 cells, fluorescence microscopy was performed. […] After being washed with PBS, the fixation of LMP1 was detected by Alexa-fluor 405 labeled secondary antibody (1/100). HeLa/Gpt cells were also stained as described above to serve as negative control. Images were analyzed using an EVOS Floid Cell Imaging Station (Life Technologies).

Test [2] deals with LMP1 positive cells (C666.1, HeLa/LMP1). Kind of test: Cellular uptake by flow cytometry, LMP1 positive cells. Type of test: cell-based. To be noted: FITC-labeled peptide 100 μM, 24 hours, C666.1 and HeLa/LMP1. The protocol: as §1
The next test has as its system HeLa/Gpt cells. Kind of test: Fluorescence microscopy, HeLa/Gpt. In kind it is cell-based. To be noted: 10 µM FITC-labeled peptide, HeLa/Gpt negative control. The protocol:
To further investigate the fixation of the peptide on C666.1 cells, fluorescence microscopy was performed. Approximately 1 × 10^6 cells were washed 3 times with PBS, fixed with 4% parafolmaldehyde for 15 minutes, blocked by 5 mg/mL BSA for 1 hour, and incubated with 10 μM FITC labeled B1.12 peptide or anti-LMP1 antibody (1/500 Dako) for 1 hour at room temperature. After being washed with PBS, the fixation of LMP1 was detected by Alexa-fluor 405 labeled secondary antibody (1/100). HeLa/Gpt cells were also stained as described above to serve as negative control. Images were analyzed using an EVOS Floid Cell Imaging Station (Life Technologies).

The target of test [3] is B2. Kind of test: ELISA; B1 peptide (100 µg) coated on the plate; about 1 × 10^10 pfu of phage clone added, 1 hour at room temperature; ten washes with 0.5% TBST; anti-M13 antibody and HRP anti-mouse, ABTS. To be noted: both partners purified. (In general: An ELISA detects its analyte on a solid surface through an enzyme-linked reagent.)
The test “B1.12 peptide” deals with B3. Kind of test: ITC; 30 °C, NaHCO3 buffer 0.1 M pH 5.7; B1 peptide (0.2 mM) in the syringe injected (2 µL per injection) into B1.12 peptide (0.01 mM) in the cell. The settings on record: both partners purified. In general terms: ITC needs no label: the signal is the heat of the interaction.
The target of test [4] is B2. In words: ELISA; competitive inhibition: B1 peptide coated (100 µl of 1 mg/mL in NaHCO3); B1.12 peptide incubated 1 hour at room temperature, then B1.12 phage (2 × 10^10 pfu) 1 hour; bound phage detected by anti-M13 antibody. The settings on record: both partners purified.
In test [5] the target is Latent membrane protein 1 (LMP1) on HeLa/LMP1 cells (Epstein-Barr virus) (UniProt P03230). Kind of test: ELISA; competitive inhibition on HeLa/LMP1 cells fixed with 4% paraformaldehyde (10^4 cells/well); synthetic peptide 50-200 µM at 37 °C for 1 hour, then B1.12 phage; anti-M13 antibody detection.
Sequence of Latent membrane protein 1 (LMP1) on HeLa/LMP1 cells (Epstein-Barr virus) (P03230 whole entry): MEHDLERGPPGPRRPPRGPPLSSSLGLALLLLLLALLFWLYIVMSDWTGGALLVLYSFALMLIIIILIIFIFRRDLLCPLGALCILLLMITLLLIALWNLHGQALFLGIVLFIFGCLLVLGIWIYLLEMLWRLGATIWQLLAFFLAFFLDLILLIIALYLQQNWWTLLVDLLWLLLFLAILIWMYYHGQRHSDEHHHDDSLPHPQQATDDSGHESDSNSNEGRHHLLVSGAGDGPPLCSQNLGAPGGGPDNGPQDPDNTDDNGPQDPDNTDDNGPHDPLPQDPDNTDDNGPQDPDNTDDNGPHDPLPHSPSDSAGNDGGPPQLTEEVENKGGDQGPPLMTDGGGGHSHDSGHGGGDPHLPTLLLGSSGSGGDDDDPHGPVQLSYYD

*: point of attachment. FITC = O=C1OC2(c3ccc(O)cc3Oc3cc(O)ccc32)c2ccc(NC(=S)*)cc21

As for “FITC-labeled B1.12 peptide: N-terminus FITC labeled B1.12 ({FITC}-ACPLDLRSPCG-NH2; cysteine pairing not given here)”, in test [1], the cellular binding/uptake result is “no binding”. For the same molecule, in the test on C666.1 cells, the “colocalization with LMP1” value is “co-localized with LMP1”. Moreover, the cellular uptake entry in test [2] is reported as “significantly higher uptake”. Also, the “binding to cells (microscopy)” value with HeLa/Gpt cells was “no binding was observed”.

B1: B1.12 phage clone (other)
chain: ACPLDLRSPCGGGS
notes: whole phage particles were used and detected with an anti-M13 antibody; also called phage B1.12; positive phage B1.12; source: M13 phage clone from the Ph.D.-C7C library (New England Biolabs), amplified in E. coli ER2738 and titrated; not shown: M13 coat protein pIII (on the phage particle), C-terminal, kept
Regarding B1, the binding result in test [3] is “binds”.

Take B2: the binding result with B1.12 peptide is listed as “binds”.

With B3, the “inhibition ratio of phage B1.12 binding at 400 µM peptide” value in test [4] was approximately 43%. In test [5], the inhibition ratio of phage B1.12 binding at 100 µM peptide came to 45%.
